Three compounds from patent US20220008437A1, “Use of prostaglandin E1 methyl ester in manufacture of vasodilator” (XI'AN LIBANG ZHAOXIN BIOTECHNOLOGY CO., LTD., priority 2018, published 2022) can be followed below.

SMILES strings stand for the structures. Read-outs that look alike come from different tables or passages of the source.

For series [1], the system named is ADP-induced platelet aggregation. Kind of series: anti-platelet aggregation test in vitro (platelet-rich plasma, ADP inducer). It is filed as cell-based, SD rats. Particulars: for inhibition at 100 µM: Rattus norvegicus, Platelet, 10 min, after 10 minutes of incubation, read-out: inhibition rate on ADP-induced platelet aggregation; for onset of anti-platelet aggregation effect after addition to PRP: incubation 0 min onward, FIG. 1. How it is done:
The Effect of the Prostaglandin E1 Methyl Ester of the Disclosure in the Anti-Platelet Aggregation Test In Vitro.
When healthy adult SD rats were anesthetized by intraperitoneal injection of 10% chloral hydrate, fresh whole blood was collected from the abdominal aorta and added to a centrifuge tube anticoagulated with 3.8% sodium citrate solution, and centrifuged at 900 rpm for 10 minutes to remove the upper platelet-rich plasma (PRP) for use. The tube having PRP removed was further centrifuged at 4000 rpm for 10 minutes, and the upper clarified plasma (PPP) was removed for use. In the experiment, Techlink model LBY-NJ4 4-channel platelet aggregator was used to determine the anticoagulant efficacy of each compound.
Into a sample cup containing 300 μL of PRP, 2 μL of 100 μM prostaglandin E1, prostaglandin E1 methyl ester of example 1, Compound 2 of Example 2 and methanol (solvent) were first added. After incubated for different periods (0, 1, 2, 4, 7, 10, 15 min), 20 μL of aggregation inducer 180 μM ADP solution was added. The aggregation rate of each sample was measured, and the inhibitory rate of the compound on ADP-induced platelet aggregation was calculated.
Inhibition rate %=(solvent aggregation rate−compound aggregation rate)/solvent aggregation rate×100%

Series [2] relates to isolated rabbit blood vessels. Kind of series: vasodilation test in vitro, isolated aortic ring specimens. Format: cell-based, New Zealand white rabbits. As to conditions: isolated rabbit thoracic aortic rings, cumulative addition 0.05-25.6 nM, read-out: diastolic efficacy EC50. The text has this: The Effect of the Prostaglandin E1 Methyl Ester of the Disclosure in the Vasodilation Test In Vitro
In the experiment, rabbits were selected to prepare isolated aortic ring specimens: New Zealand white rabbits, male, weighing (2.5±0.3) kg. The rabbit was stunned with a blunt instrument, fixed on the rabbit dissecting table, and the thoracic aorta was quickly separated, and placed in a petri dish filled with saturated Kerbs solution (containing NaCl 6.9 g, KCl 0.35 g, MgSO4.7H2O 0.29 g, KH2PO4 0.16 g, NaHCO32.1 g, CaCl2) 0.28 g, glucose 2 g per 1000 mL) at 37° C. and continuously introduced with mixed gas (95% O2, 5% CO2). The remaining blood in the blood vessel was squeezed out, and the peripheral fat and connective tissue were carefully peeled off, and it was cut into 0.5 cm long arterial rings for use. […]
BL-420S biological function experiment system (Chengdu Techman Technology) was used to record the variation of vascular ring tension. After the vascular ring contraction was stable, prostaglandin E1 and the compounds of the Examples were accumulatively added to successively increase the final mass concentration of prostaglandin E1 in the bath tube to 0.05, 0.1, 0.2, 0.4, 0.8, 1.6, 3.2, 6.4, 12.8, 25.6 nM, and the diastolic efficacies of the vascular ring were recorded.

A further series relates to mouse scleroderma model. As to the kind of experiment: mouse scleroderma model (bleomycin subcutaneously). As to conditions: for Skin thickness / Collagen content: osmotic pump 28 days; for Skin thickness: inferior vena cava; for Collagen content: skin. Format: in vivo, Balb/c mice. How it is done:
Therapeutic Effect of Prostaglandin E1 Methyl Ester in Mouse Scleroderma Model In this experiment, 56 Balb/c mice weighing 22-25 g were randomly divided into 7 groups: normal group, model group, vehicle group, prostaglandin E1 high-dose group and prostaglandin E1 low-dose group, and prostaglandin E1 methyl ester high-dose group and prostaglandin E1 methyl ester low-dose group. Model preparation: the clothing hair on the central area of the mice was shaved, the normal group was injected with 0.1 ml PBS subcutaneously on the back, and the other groups were injected with 0.1 ml of 0.2 mg/ml bleomycin subcutaneously, once a day for three weeks. […] Prostaglandin E1 high and low-dose groups were loaded with 28 μg and 14 μg of drugs respectively; prostaglandin E1 methyl ester high and low-dose groups were also loaded with 28 μg and 14 μg of drugs respectively; solvent group was not loaded with drugs. […] The administration was started at the same time as the model was created. Index detection: After the administration, the animals were sacrificed, and skin and lung sections of the injection site were made, and HE stained. The histological changes were observed, and the skin (dermis) thickness was measured; and the photoelectric colorimetry was used to determine the content of hydroxyproline and protein in the skin to infer the content of collagen.

A short description of series [3]: distribution in rat skin tissue (total radiation value). Particulars: 200 μg [3H]-labelled drug via osmotic pump over 3 days, inferior vena cava. The procedure: Distribution of Prostaglandin E1 Methyl Ester in Rat Skin Tissue
In this experiment, 12 male SD rats weighing 250-280 g were randomly divided into two groups (n=6): prostaglandin E1 group and prostaglandin E1 methyl ester group. Osmotic pumps (model 1003D, ALZA Corporation, Canada) containing 100 μl of drug in DMSO were used. The drug was released at a constant rate, and the drug release cycle was 3 days. They were loaded with 200 μg of [^3H] prostaglandin E1 and [^3H] prostaglandin E1 methyl ester respectively. […] After the administration, the animals were sacrificed, skin tissues were taken (the same position for each animal), weighed, and the total radiation value was measured.

The subject of series [4] is human umbilical vein endothelial cells (HUVEC). As to the kind of experiment: HUVEC proliferation, MTT detection. Format: cell-based. As to conditions: 1-100 nM, incubated 24 hours, compared with unmedicated wells. The procedure:
Frozen human umbilical vein endothelial cells (HUVEC) were resuscitated and placed in low-sugar DMEM medium with 10% (V/V) FBS, and 100 U/L penicillin and 0.1 g/L streptomycin were added. It was cultured artificially in an environment of 5% CO2 and 95% air at a temperature of 37° C. A fresh medium was replaced every three days. When the cell density reached 70-80%, the digestion solution (0.25% trypsin/0.02EDTA) was used to harvest the cells. After the cells were resuspended, they were seeded in a 96-well plate with a density of 5×10^3 per well. After 1 day of culture, 1-100 nM of prostaglandin methyl ester was added and incubated for 24 hours for MTT detection.

The target in the next series is T1, hDP1 (Homo sapiens, UniProt Q13258).
T1 sequence (Q13258 1-359): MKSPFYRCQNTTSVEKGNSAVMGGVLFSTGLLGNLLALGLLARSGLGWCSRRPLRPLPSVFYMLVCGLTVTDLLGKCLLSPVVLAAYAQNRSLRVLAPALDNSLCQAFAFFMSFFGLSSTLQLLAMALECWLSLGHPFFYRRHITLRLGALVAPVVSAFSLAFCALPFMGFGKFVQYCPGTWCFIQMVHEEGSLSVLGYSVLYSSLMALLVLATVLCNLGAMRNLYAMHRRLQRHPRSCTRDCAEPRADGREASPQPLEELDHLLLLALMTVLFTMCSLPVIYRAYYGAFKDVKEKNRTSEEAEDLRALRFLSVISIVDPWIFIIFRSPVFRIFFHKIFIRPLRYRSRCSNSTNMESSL
As to the kind of experiment: radioligand ([3H] Prostaglandin D2) competitive receptor binding assay, DP receptor affinity in vitro. As to conditions: Test Concentration 100 nM; [3H] PGD2 radioligand; read-out: Inhibition rate. From the text: Affinity Test of DP Receptor Target In Vitro.
The radioligand ([3H] Prostaglandin D2 (PGD2)) competitive receptor binding assay was used to evaluate the affinity of the test compound with the DP receptor.

The mark [5] stands for this setting: 2 μL of 100 μM compound in 300 μL PRP.

A word on the inhibition: it is how much of the control response was suppressed. Regarding `CCCCC[C@H](O)/C=C/[C@H]1[C@H](O)CC(=O)[C@@H]1CCCCCCC(=O)OCC` [Compound 2], in series [1] (setting [5]), the inhibition at 100 µM amounted to 51.9%. In addition, in series [1], the “onset of anti-platelet aggregation effect after addition to PRP” value (shortened to “onset”) is “does not take effect immediately”.
Broadly, the EC50 is the concentration giving half of the maximal effect. Consider `CCCCC[C@H](O)/C=C/[C@H]1[C@H](O)CC(=O)[C@@H]1CCCCCCC(=O)O` [prostaglandin E1, Prostaglandin E1], for which the EC50 in series [2] turned out to be 9.77 nM. Besides, in series [1] (after 4 minutes of incubation, 2 μL of 100 μM compound in 300 μL PRP), the “inhibition rate on ADP-induced platelet aggregation” value was 4.93%. In addition, the “onset” value in series [1] is reported as “take effect immediately”. In the series with mouse scleroderma model (high-dose 1 ug/day), this compound had a Skin thickness of 29.12 ± 2.46 μm and a Collagen content of 879.66 ± 128.92 mg/L. In the series on mouse scleroderma model (low-dose 0.5 ug/day), the Skin thickness was 32.59 ± 3.03 μm and the Collagen content is recorded as 947.99 ± 214.86 mg/L. In addition, in series [3], the Skin tissue concentration is given as 45.1 ± 7.5 ng (radiatione quivalent)/g.
Consider `CCCCCC(O)/C=C/C1C(O)CC(=O)C1CCCCCCC(=O)OC` (stereo not drawn) [prostaglandin E1 methyl ester], for which the EC50 in series [2] (Oryctolagus cuniculus) came out at 1.09 nM. The “proliferation of vascular endothelial cells” value in series [4] is “significant effect of promoting the proliferation of vascular endothelial cells”. Also, the inhibition at 100 µM in series [1] (setting [5]) came to 43.7%. For the same compound, the “duration of anticoagulant effect relative to prostaglandin E1” value in series [1] (compared with prostaglandin E1) worked out at 2 times. Also, the “onset” value in series [1] is “take effect immediately”. Moreover, in the series on mouse scleroderma model (HE stained lung sections, compared with prostaglandin E1 group), the “lung tissue histology (alveolar septum thickening, inflammatory cell infiltration)” value was “slightly better than the prostaglandin E1 group”. Further, in the series with mouse scleroderma model (high-dose 1 ug/day), the Skin thickness came out at 21.35 ± 2.11 μm and the Collagen content stood at 467.52 ± 141.08 mg/L. In the series on mouse scleroderma model (low-dose 0.5 ug/day), this compound showed a Skin thickness of 24.66 ± 2.54 μm and a Collagen content of 588.62 ± 127.41 mg/L. The inhibition at 0.1 µM at hDP1 was 78%.
